Experimental findings from patent US20240109917A1 (ACTELION PHARMACEUTICALS LTD, priority 2020, published 2024) are described below.

This test concerns the target His6-TEV-PDGFRβ (557-1016) (Homo sapiens (Human), UniProt P09619). The test is described as follows: PDGFRβ HTRF Assay. It counts as biochemical. The settings on record: read-out: PDGFR HTRF IC50. Put shortly: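 HTRF KinEASE-TK readout (665/620 nm ratio) of TK-biotin substrate phosphorylation by His-tagged PDGFRβ kinase domain. Enzyme and inhibitor preincubated 30 min, then ATP/substrate added for 3 h at room temperature before 60 min EDTA quench/detection.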

Sequence of His6-TEV-PDGFRβ (557-1016) (P09619 557-1016): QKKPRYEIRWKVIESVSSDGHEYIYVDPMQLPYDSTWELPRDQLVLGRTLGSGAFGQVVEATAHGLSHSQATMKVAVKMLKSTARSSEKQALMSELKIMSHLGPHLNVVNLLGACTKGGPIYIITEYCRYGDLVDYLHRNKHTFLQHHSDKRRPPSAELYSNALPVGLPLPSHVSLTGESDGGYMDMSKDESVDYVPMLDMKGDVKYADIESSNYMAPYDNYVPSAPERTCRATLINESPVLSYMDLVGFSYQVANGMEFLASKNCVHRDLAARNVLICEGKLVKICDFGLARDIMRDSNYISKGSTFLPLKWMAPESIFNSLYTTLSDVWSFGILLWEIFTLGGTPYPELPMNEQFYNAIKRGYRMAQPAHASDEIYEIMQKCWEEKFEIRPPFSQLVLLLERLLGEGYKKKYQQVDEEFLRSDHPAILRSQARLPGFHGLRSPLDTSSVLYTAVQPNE

As for `COc1ncccc1-c1cn2ncc(C(=O)Nc3cc(C(=O)NCCN4CCC[C@@H]4C)cnc3C)c2s1` [Example 301, (S)-2-(2-methoxypyridin-3-yl)-N-(2-methyl-5-((2-(2-methylpyrrolidin-1-yl)ethyl)carbamoyl)pyridin-3-yl)pyrazolo[5,1-b]thiazole-7-carboxamide], the IC50 worked out at 0.2 nM.

In the case of `Cc1ncc(NC(=O)CC23CCCN2CCC3)cc1NC(=O)c1cnn2cc(-c3cnn(C)c3)sc12` [Example 302, 2-(1-methyl-1H-pyrazol-4-yl)-N-(2-methyl-5-(2-(tetrahydro-1H-pyrrolizin-7a(5H)-yl)acetamido)pyridin-3-yl)pyrazolo[5,1-b]thiazole-7-carboxamide], the IC50 worked out at 1.2 nM. With `Cc1ncc(NC(=O)CN2CCCC(O)C2)cc1NC(=O)c1cnn2cc(-c3cnn(C)c3)sc12` (centres unmarked) [Example 303, N-(5-(2-(3-hydroxypiperidin-1-yl)acetamido)-2-methylpyridin-3-yl)-2-(1-methyl-1H-pyrazol-4-yl)pyrazolo[5,1-b]thiazole-7-carboxamide] the figure was 0.4 nM; with `Cc1ncc(NC(=O)[C@@H]2C[C@@H](C)CN2C)cc1NC(=O)c1cnn2cc(-c3cnn(C)c3)sc12` [Example 304, N-(5-((2S,4R)-1,4-dimethylpyrrolidine-2-carboxamido)-2-methylpyridin-3-yl)-2-(1-methyl-1H-pyrazol-4-yl)pyrazolo[5,1-b]thiazole-7-carboxamide], 0.6 nM. With `Cc1ncc(NC(=O)C[C@@H]2CCCCN2C(C)C)cc1NC(=O)c1cnn2cc(-c3cnn(C)c3)sc12` [Example 305, (S)—N-(5-(2-(1-isopropylpiperidin-2-yl)acetamido)-2-methylpyridin-3-yl)-2-(1-methyl-1H-pyrazol-4-yl)pyrazolo[5,1-b]thiazole-7-carboxamide] the figure was 2.1 nM. The result for `Cc1ncc(NC(=O)C(C)N2CCCCCC2)cc1NC(=O)c1cnn2cc(-c3cnn(C)c3)sc12` (centres unmarked) [Example 306, N-(5-(2-(azepan-1-yl)propanamido)-2-methylpyridin-3-yl)-2-(1-methyl-1H-pyrazol-4-yl)pyrazolo[5,1-b]thiazole-7-carboxamide] reads 0.5 nM. As for `Cc1ncc(NC(=O)CC(C)N2CCCCC2)cc1NC(=O)c1cnn2cc(-c3cnn(C)c3)sc12` (centres unmarked) [Example 307, 2-(1-methyl-1H-pyrazol-4-yl)-N-(2-methyl-5-(3-(piperidin-1-yl)butanamido)pyridin-3-yl)pyrazolo[5,1-b]thiazole-7-carboxamide], the IC50 was found to be 9.7 nM. The result for `Cc1ncc(NC(=O)[C@@H]2CCCN3CCCC[C@H]23)cc1NC(=O)c1cnn2cc(-c3cnn(C)c3)sc12` [Example 308, 2-(1-methyl-1H-pyrazol-4-yl)-N-(2-methyl-5-((1R,9aR)-octahydro-2H-quinolizine-1-carboxamido)pyridin-3-yl)pyrazolo[5,1-b]thiazole-7-carboxamide] reads 20.9 nM; that for `COc1ncccc1-c1cn2ncc(C(=O)Nc3cc(NC(=O)C[C@H]4CCCN4C(C)C)cnc3C)c2s1` [Example 309, (R)—N-(5-(2-(1-isopropylpyrrolidin-2-yl)acetamido)-2-methylpyridin-3-yl)-2-(2-methoxypyridin-3-yl)pyrazolo[5,1-b]thiazole-7-carboxamide], 0.2 nM; that for `COc1ncccc1-c1cn2ncc(C(=O)Nc3cc(NC(=O)CN4CCOCC45CCC5)cnc3C)c2s1` [Example 310, N-(5-(2-(8-oxa-5-azaspiro[3.5]nonan-5-yl)acetamido)-2-methylpyridin-3-yl)-2-(2-methoxypyridin-3-yl)pyrazolo[5,1-b]thiazole-7-carboxamide], 0.3 nM.

On to `CC[C@H]1CN(CC(=O)Nc2cnc(C)c(NC(=O)c3cnn4cc(-c5cccnc5OC)sc34)c2)CCO1` [Example 311, (S)—N-(5-(2-(2-ethylmorpholino)acetamido)-2-methylpyridin-3-yl)-2-(2-methoxypyridin-3-yl)pyrazolo[5,1-b]thiazole-7-carboxamide], for which the IC50 was found to be 0.2 nM.

The term IC50 denotes the concentration needed to halve the response being measured.
